Values quoted from earlier work as cited in patent US11273077B2, “Wound packing material comprising chemoeffector” (priority 2015, dated 2022).

Experiments:
Escherichia Coli = details: Tar and Tsr receptor mediated

SMILES | specificity of chemotaxis toward intermediates of amino acid metabolism (Pseudomonas Aeruginosa) | concentration that induces E. coli chemotaxis (Escherichia Coli) | ligand specificity as chemoattractant (Enterobacteria)
NCCCC(=O)O [GABA, gamma-aminobutyrate] | high specificity | – | –
N[C@@H](CO)C(=O)O [L-serine] | – | nanomolar range | high ligand specificity
